Values of other authors as cited in patent publication US20110015587A1, “Irrigation Device and Method Using Same” (priority 2009, published 2011).

How the values were obtained:
bacteria [1] = details: 2.6 ppm, 5 minutes
Escherichia coli = Escherichia coli exposed to hypochlorous acid
[2] = test system: gram-negative and gram-positive bacteria, fungi and yeast including MRSA, Pseudomanas aeruginosa, VRE
bacteria [3] = details: very low concentrations
[4] = test system: cellular components of wound healing

Compound: OCl [Hypochlorous acid]
- growth inhibition (bacteria [1]): 100%
- time to loss of viability (Escherichia coli): less than 100 ms

Compound: Polyaminopropyl biguanide [PAPB]
- activity against gram-negative and gram-positive bacteria, fungi and yeast [2]: active
- toxicity to higher organisms such as human cells (human cells): very low toxicity
- bactericidal concentration (bacteria [3]): 10 mg/L

Compound: povidone-iodine
- cytotoxicity to the cellular components of wound healing [4]: cytotoxic
